Entries after “also recorded” stand apart in the source; their conditions may differ. Where two headings read alike, the source gives them in different places.
How the values were obtained:
[1] = Ticagrelor-diltiazem interaction study: pharmacokinetic parameters of ticagrelor and AR-C124910XX; settings: for Cmax: po
Procedure: (§1) Both studies were single-center, randomized, open-label studies with a two-period, in-patient, crossover design. For both studies, a low non-loading dose of ticagrelor (i.e., a single oral dose of 90 mg) was selected, so if an interaction occurred between ticagrelor and the CYP3A4 inhibitor, then the increase in ticagrelor plasma concentrations would minimize any safety issues. […] The approved dosing regimen of ticagrelor is 180 mg loading dose followed by 90 mg twice daily thereafter3,4.
(§2) Figure 1 depicts the overall study design for both studies. At the start of each study, volunteers were randomized to one of two treatments (A or B). After the washout period, volunteers received the alternate dosing regimen. On the scheduled day, ticagrelor was co-administered with the CYP3A4 inhibitor in the morning after fasting for ≥10 hours followed by a further fast for ≥4 hours. Water was permitted ad libitum throughout each period except for 2 hours before and after ticagrelor administration.
(§3) The limits of quantification (LOQ) for ticagrelor and AR-C124910XX were […], respectively28.
(§4) Plasma concentration–time data were used to calculate Cmax, time to maximum concentration (tmax), AUC, and the terminal elimination half-life (t½). The latter was calculated as 0.693/λz, where λz is the terminal phase elimination rate constant, derived by least-squares regression analysis of the plasma concentration–time data obtained over the terminal log-linear phase. AUC was calculated using the linear trapezoidal method and extrapolated to infinity. AR-C124910XX:ticagrelor ratios for Cmax and AUC were calculated.
(§5) Statistical analyses were conducted using SAS version 8 (SAS Institute, Cary, North Carolina, USA). Pharmacokinetic parameters were summarized by descriptive statistics. AUC and Cmax values for ticagrelor and AR-C124910XX were analyzed, following log-transformation, by analysis of variance with terms for treatment, period, and sequence, and the volunteer within sequence was included as a random effect. After exponentiation, geometric least square mean point estimates and 90% CIs for the ratio ticagrelor + CYP3A4 inhibitor/ticagrelor alone were calculated. The pre-specified limits for the 90% CI values indicating no interaction between ticagrelor and either CYP3A4 inhibitor were 0.7–1.43.

[2] = Ticagrelor-ketoconazole interaction study: pharmacokinetic parameters of ticagrelor and AR-C124910XX; settings: for Cmax: po
Procedure: as §1, §2, §3, §4, §5

[3] = parameters: method as in PMID 20091161; settings: single oral dose of ticagrelor 100 mg; healthy volunteers n = 9; cited from earlier work
platelet aggregation = tested on: platelet aggregation; parameters: method as in AstraZeneca, data on file; settings: ref AstraZeneca, data on file; cited from earlier work
[4] = parameters: method as in PMID 20551239, PMID 20091161, PMID 20642549, PMID 16476694, PMID 17980251; settings: cited from earlier work
[5] = Safety and tolerability, diltiazem study; format: in vivo, human
Procedure: (§6) Safety and tolerability of ticagrelor alone and in the presence of diltiazem or ketoconazole were evaluated by assessment of adverse events (AEs), vital signs, electrocardiographic (ECG), physical examination, and laboratory parameters (clinical chemistry, hematology, and urinalysis) throughout the studies.

[6] = Safety and tolerability, ketoconazole study; format: in vivo, human
Procedure: as §6

[7] = parameters: method as in PMID 16476694; settings: 28 days, cited from earlier work
[8] = cited from earlier work
CYP3A [9] = tested on: CYP3A; parameters: method as in PMID 21177984; settings: cited from earlier work; for Inhibition of CYP3A activity in vitro: in words
[10] = parameters: method as in PMID 19717846; settings: ticagrelor + aspirin compared with clopidogrel + aspirin; patients with ACS; cited from earlier work
P-glycoprotein = settings: ref 18 (AstraZeneca, data on file); cited from earlier work
[11] = cited from earlier work; remark: listed apart in the source
[12] = Effect of ticagrelor on ketoconazole steady-state plasma concentrations; format: in vivo, human; settings: for Plasma concentration, mean (% CV; range): ketoconazole 200 mg twice daily
Procedure: as §1, §3, §4

CYP3A [13] = settings: cited from earlier work
[14] = Effect of ticagrelor on diltiazem pharmacokinetic parameters; format: in vivo, human; settings: for Tmax: human, plasma, read-out: Median tmax (range); for Effect of ticagrelor on pharmacokinetic parameters: in words
[15] = diltiazem co-administration vs ticagrelor alone
[16] = ticagrelor + diltiazem/ticagrelor alone
[17] = ketoconazole co-administration vs ticagrelor alone
[18] = ticagrelor + ketoconazole/ticagrelor alone
[19] = single dose 900 mg, healthy volunteers n = 6

Compound: CCCSc1nc(N[C@@H]2C[C@H]2c2ccc(F)c(F)c2)c2nnn([C@@H]3C[C@H](O)[C@@H](O)[C@H]3O)c2n1 [AR-C124910XX]
- Metabolite:parent AUC ratio ([1]; human, in vivo): 0.4 (39)
- Metabolite:parent Cmax ratio ([1]; human, in vivo): 0.3 (36)
- AUC ([1]; human, in vivo, 90 mg): 1630 (29) ng·h/mL
- Tmax ([1]; human, in vivo, 90 mg): 3.0 (2.0–4.0) h
- t½ ([1]; human, in vivo, 90 mg): 8.4 (1.3) h
- Cmax ([1]; human, in vivo): 173 (38) ng/mL
- Metabolite:parent AUC ratio ([2]; human, in vivo): 0.49 (24)
- Metabolite:parent Cmax ratio ([2]; human, in vivo): 0.32 (22)
- AUC ([2]; human, in vivo, 90 mg): 1769 (28) ng·h/mL
- Tmax ([2]; human, in vivo, 90 mg): 2.0 (2.0–4.0) h
- t½ ([2]; human, in vivo, 90 mg): 8.0 (6.3–16.7) h
- Cmax ([2]; human, in vivo): 207 (29) ng/mL
- AUC, mean ± standard deviation [3]: 1460 ± 408 ng·h/mL
- Potency in inhibiting platelet aggregation relative to ticagrelor (platelet aggregation): approximately equipotent
- Metabolite level as share of the levels of ticagrelor [4]: 30–40%

Compound: CCCSc1nc(N[C@@H]2C[C@H]2c2ccc(F)c(F)c2)c2nnn([C@@H]3C[C@H](OCCO)[C@@H](O)[C@H]3O)c2n1 [Ticagrelor]
- Increase in AUC [1, 15]: 174%
- Increase in Cmax [1, 15]: 69%
- Increase in half-life [1, 15]: 96%
- AUC ([1]; human, plasma, oral, 90 mg): 3700 ng·h/mL
- Tmax ([1]; human, plasma, oral, 90 mg): 2 h
- half-life ([1]; human, plasma, oral, 90 mg): 8.3 h
- Cmax ([1]; human, plasma, 90 mg): 519 ng/mL
- Effect of diltiazem on median tmax ([1]; in words): unaffected
- AUC GLS mean ratio: point estimate (90% CI) [1, 16]: 2.74 (2.40–3.13)
- Cmax GLS mean ratio: point estimate (90% CI) [1, 16]: 1.69 (1.47–1.95)
- Increase in AUC ([2]; co-administration of ketoconazole): ≥ 5 fold
- AUC ([2]; human, plasma, oral, 90 mg): 3640 ng·h/mL
- Tmax ([2]; human, plasma, oral, 90 mg): 2 h
- half-life ([2]; human, plasma, oral, 90 mg): 7.1 h
- Cmax ([2]; human, plasma, 90 mg): 654 ng/mL
- Increase in AUC [2, 17]: 632%
- Increase in Cmax [2, 17]: 135%
- Half-life increased to (relative to ticagrelor alone) ([2]; presence of ketoconazole): approximately 362%
- AUC GLS mean ratio: point estimate (90% CI) [2, 18]: 7.32 (6.43–8.34)
- Cmax GLS mean ratio: point estimate (90% CI) [2, 18]: 2.35 (2.13–2.60)
- Deaths or serious AEs ([5]; diltiazem study): No deaths or serious AEs
- Bleeding events ([5]; in vivo): No such events
- AEs reported ([5]; in vivo, po): No AEs
- AEs ([6]; in vivo): five AEs
- Deaths or serious AEs ([6]; ketoconazole study): No deaths or serious AEs
- AUC, mean ± standard deviation [3]: 3683 ± 753 ng·h/mL
- Mean AUC ([7]; 100 mg ticagrelor twice daily, CV 45%): 5337 ng·h/mL
- Mean AUC ([7]; 200 mg ticagrelor twice daily, CV 39%): 15,104 ng·h/mL
- Increase in exposure ([7]; 200 mg vs 100 mg twice daily): 283%
- Total bleeding events: number of events (Kaplan–Meier event rates) ([8]; 90 mg twice daily, through week 4): 32 (9.8)
- Total bleeding events: number of events (Kaplan–Meier event rates) ([8]; 90 mg twice daily, through week 12): 34 (10.9)
- Mean AUC ± SD ([8]; 90 mg twice daily, week 4): 4762 ± 2443 ng·h/mL
- Total bleeding events: number of events (Kaplan–Meier event rates) ([8]; 180 mg twice daily, through week 4): 25 (8.0)
- Total bleeding events: number of events (Kaplan–Meier event rates) ([8]; 180 mg twice daily, through week 12): 33 (11.4)
- Mean AUC ± SD ([8]; 180 mg twice daily, week 4): 13,198 ± 4982 ng·h/mL
- Inhibition of platelet aggregation (IPA) ([8]; 180 mg vs 90 mg twice daily): dose-dependent increase
- Increase in ticagrelor exposure ([8]; 180 mg vs 90 mg twice daily, week 4): 277%
- Metabolism by CYP3A (CYP3A [9]; human liver microsomes / in vitro): principally metabolized by CYP3A; also recorded: substrate
- Inhibition of CYP3A activity in vitro (CYP3A [9]): weak-to-moderate inhibitor
- Inhibition of CYP3A activity in vitro (CYP3A [9]; listed as ticagrelor): weak inhibitor
- Rate of myocardial infarction/stroke/death from vascular causes [10]: significantly reduced
- P-glycoprotein substrate status (P-glycoprotein): substrate
- Maximum tolerated single dose ([11]; healthy volunteers): 900 mg
- AUC, mean [% CV] [11, 19]: 39,153 [38] ng·h/mL
- Bleeding-related AEs [11, 19]: no bleeding-related AEs
- Cmax, mean [% CV] [11, 19]: 5153 [42] ng/mL

Compound: CC(=O)N1CCN(c2ccc(OCC3COC(Cn4ccnc4)(c4ccc(Cl)cc4Cl)O3)cc2)CC1 (stereo not drawn) [ketoconazole]
- Effect of ticagrelor on steady-state plasma concentrations / pharmacokinetic parameters ([12]; in words): not significantly affected; also recorded: did not affect
- Plasma concentration, mean (% CV; range) ([12]; 12 hours post-dosing with ticagrelor on day 4): 1271 (84;334–4150) ng/mL
- Plasma concentration, mean (% CV; range) ([12]; pre-dosing on day 4, absence of ticagrelor): 1410 (73; 396–3540) ng/mL
- CYP3A substrate status (CYP3A [13]): substrates for CYP3A
- Classification as CYP3A inhibitor (CYP3A [13]): strong CYP3A inhibitor

Compound: COc1ccc([C@@H]2Sc3ccccc3N(CCN(C)C)C(=O)[C@@H]2OC(C)=O)cc1 [diltiazem, Diltiazem]
- Tmax ([14]; diltiazem + ticagrelor): 10 h
- Tmax ([14]; diltiazem alone): 8 h
- Effect of ticagrelor on pharmacokinetic parameters [14]: no effect; also recorded: did not affect
- Effect of ticagrelor on pharmacokinetic parameters ([14]; listed as Diltiazem): not significantly affected
- Abnormal ECG evaluations of first-degree atria-ventricular block ([5]; in vivo): two volunteers
- Systolic and diastolic blood pressure compared to baseline ([5]; in vivo): marginal decrease

Reference: PMC4937655 (Journal of Drug Assessment, 2013)
